Here are results for 22 compounds from ChEMBL document CHEMBL4270639, “Design of PPAR-γ agonist based on algal metabolites and the endogenous ligand 15-deoxy-Δ12, 14-prostaglandin J2” (Eur J Med Chem, 2018).

SMILES strings stand for the structures. Active and inactive are the calls of the source. The calls are words filed in the database; no cut-off is given here.

System in the first data set: not listed separately
The data set can be described thus: Cytotoxicity against rat Ac2F cells assessed as decrease in cell viability after 24 hrs by WST assay. Format: cell-based.
For the compound `COC(=O)CC1CCC(=O)C1=CC1CCCCC1` (stereo not drawn), the Activity result is “Non-Toxic”.

The next data set deals with T1, Peroxisome proliferator-activated receptor gamma (Homo sapiens) (UniProt P37231).
T1 sequence (whole entry): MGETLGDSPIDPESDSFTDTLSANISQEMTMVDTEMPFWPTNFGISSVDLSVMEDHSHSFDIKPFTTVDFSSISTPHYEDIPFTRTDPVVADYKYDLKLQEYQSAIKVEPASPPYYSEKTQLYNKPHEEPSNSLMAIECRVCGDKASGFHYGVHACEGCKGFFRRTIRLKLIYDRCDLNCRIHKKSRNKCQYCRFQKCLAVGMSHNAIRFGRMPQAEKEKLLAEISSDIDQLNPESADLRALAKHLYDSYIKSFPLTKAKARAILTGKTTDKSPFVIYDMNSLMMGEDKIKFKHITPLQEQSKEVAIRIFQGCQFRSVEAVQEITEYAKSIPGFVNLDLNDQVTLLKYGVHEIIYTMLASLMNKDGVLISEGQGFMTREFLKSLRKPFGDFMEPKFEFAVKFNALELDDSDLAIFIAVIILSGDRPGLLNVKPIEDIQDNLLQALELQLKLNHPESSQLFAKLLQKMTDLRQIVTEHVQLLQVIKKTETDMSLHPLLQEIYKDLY
In words: Transactivation of full length human FLAG-tagged PPARgamma1 LBD expressed in rat Ac2F cells at 5 to 10 uM after 6 hrs by luciferase reporter gene assay. Format: cell-based. Background: In a reporter assay the amount or activity of a reporter protein is the signal.
In the case of `CCCCCCC=C1C(=O)CCC1CC(=O)OC` (stereo not drawn), the outcome was inactive.
`COC(=O)CC1CCC(=O)C1=CCC(C)C` (stereo not drawn): the result was Active.
On to `CCCCC(C=C1C(=O)CCC1CC(=O)OC)CC` (stereo not drawn), for which the outcome was Active.
Same read-out and setting: under `COC(=O)CC1CCC(=O)/C1=C/C1CCCCC1` (stereo not drawn) stands “Active”; under `COC(=O)CC1CCC(=O)C1=CC(C)c1ccccc1` (stereo not drawn), “inactive”.
Regarding `CCCC=C1C(=O)CCC1CC(=O)OC` (stereo not drawn), the outcome was inactive.
Regarding `O=C(O)CC1CCC(=O)/C1=C/C1CCCCC1` (stereo not drawn), the outcome was Active.
Same read-out and setting: under `COC(=O)CC1CCC(=O)C1=CC1CCCC1` (stereo not drawn) stands “Active”; under `COC(=O)CC1CCC(=O)C1=CC1CCCCC1` (stereo not drawn), “Active”.
On the same count and under the same terms, the result for `CCOC(=O)C[C@@H]1CCC(=O)/C1=C/C1CCCCC1` reads “Active”; that for `CCCCCCCC=C1C(=O)CCC1CC(=O)OC` (stereo not drawn), “inactive”; that for `COC(=O)CC1CCC(=O)C1CC1CCCCC1` (stereo not drawn), “inactive”.
Still for that read-out and setting: the result for `CCOC(=O)CC1CCC(=O)/C1=C/C1CCCCC1` (stereo not drawn) reads “Active”; that for `COC(=O)CC1CCC(=O)C1=CC(OC)OC` (stereo not drawn), “Active”.
In the case of `COC(=O)CC1CCC(=O)/C1=C\CCc1ccccc1` (stereo not drawn), the result was inactive.
`CCOC(=O)C[C@H]1CCC(=O)/C1=C/C1CCCCC1`: the result was Active.
`CCCCC=C1C(=O)CCC1CC(=O)OC` (stereo not drawn): the outcome was inactive.
For the compound `CCC=C1C(=O)CCC1CC(=O)OC` (stereo not drawn), the outcome was inactive.
Still for that read-out and setting: the result for `COC(=O)CC1CCC(=O)C1=CC(c1ccccc1)c1ccccc1` (stereo not drawn) reads “inactive”; that for `COC(=O)CC1CCC(=O)/C1=C/CCc1ccccc1` (stereo not drawn), “inactive”; that for `COC(=O)CC1CCC(=O)C1=CCc1ccccc1` (stereo not drawn), “Active”.
Same read-out and setting: under `CCCCCCCCC=C1C(=O)CCC1CC(=O)OC` (stereo not drawn) stands “inactive”.
